± gives the standard deviation of the averaged measurements.
Legend:
HS-PSS [1] = experiment: drug sensitivity score (DSS, CellTiter-Glo viability, 72 h) (DSS (dimensionless)); higher = more sensitive; extreme values may be limits of the assay
In short: (§1)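 For this screen, 384-well plates were preprinted with each compound at five concentrations in 10-fold steps and seeded with MPNST cell lines or primary human Schwann cells at 750–1000 cells per well. Incubation lasted 72 h at 37 °C, 5% CO2, and CellTiter-Glo ATP luminescence, scaled between vehicle and positive-control wells and averaged over duplicates where available, served as viability. Logistic fits with four parameters were applied. Relative IC50 (censored at the top concentration) and drug sensitivity score derive from these fits, and percent inhibition is at the top concentration.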

HS-Sch-2 [2] = experiment: as above
In short: as §1

[3] = test system: HSC1 (primary human Schwann cells); experiment: as above
In short: as §1

[4] = test system: HSC2 (primary human Schwann cells); experiment: as above
In short: as §1

S1507-2 [5] = experiment: as above
In short: as §1

S462 [6] = experiment: as above
In short: as §1

ST8814 [7] = experiment: as above
In short: as §1

STS26T [8] = experiment: as above
In short: as §1

YST-1 [9] = experiment: as above
In short: as §1

HS-PSS [10] = experiment: drug sensitivity score (DSS, CellTox-Green cytotoxicity, 72 h) (DSS (dimensionless)); higher = more cytotoxic; extreme values may be limits of the assay
In short: (§2)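 MPNST cell lines and primary human Schwann cells were grown for 72 h at 37 °C in 384-well plates containing five 10-fold compound dilutions. CellTox-Green, added before seeding at a final 1:1000 dilution, gave fluorescence from DNA released by disrupted cells, and signals were scaled to vehicle and positive-control wells. Curves were fitted with a four-parameter logistic model. Drug sensitivity score and relative IC50 come from these fits, with IC50 censored at the top concentration.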

[11] = test system: HSC1 (primary human Schwann cells); experiment: as above
In short: as §2

[12] = test system: HSC2 (primary human Schwann cells); experiment: as above
In short: as §2

S1507-2 [13] = experiment: as above
In short: as §2

ST8814 [14] = experiment: as above
In short: as §2

STS26T [15] = experiment: as above
In short: as §2

HS-PSS [16] = experiment: % inhibition of CellTiter-Glo viability at highest tested concentration (72 h), relative to DMSO and benzethonium chloride controls; higher = more inhibition
In short: as §1

HS-Sch-2 [17] = experiment: as above
In short: as §1

[18] = test system: HSC1 (primary human Schwann cells); experiment: as above
In short: as §1

[19] = test system: HSC2 (primary human Schwann cells); experiment: as above
In short: as §1

S1507-2 [20] = experiment: as above
In short: as §1

S462 [21] = experiment: as above
In short: as §1

ST8814 [22] = experiment: as above
In short: as §1

STS26T [23] = experiment: as above
In short: as §1

YST-1 [24] = experiment: as above
In short: as §1

| SMILES | drug sensitivity score (HS-PSS [1]) | drug sensitivity score (HS-Sch-2 [2]) | drug sensitivity score [3] | drug sensitivity score [4] | drug sensitivity score (S1507-2 [5]) | drug sensitivity score (S462 [6]) | drug sensitivity score (ST8814 [7]) | drug sensitivity score (STS26T [8]) | drug sensitivity score (YST-1 [9]) | drug sensitivity score (HS-PSS [10]) | drug sensitivity score [11] | drug sensitivity score [12] | drug sensitivity score (S1507-2 [13]) | drug sensitivity score (ST8814 [14]) | drug sensitivity score (STS26T [15]) | % inhibition (HS-PSS [16]) | % inhibition (HS-Sch-2 [17]) | % inhibition [18] | % inhibition [19] | % inhibition (S1507-2 [20]) | % inhibition (S462 [21]) | % inhibition (ST8814 [22]) | % inhibition (STS26T [23]) | % inhibition (YST-1 [24]) |
| --- | --- | --- | --- | --- | --- | --- | --- | --- | --- | --- | --- | --- | --- | --- | --- | --- | --- | --- | --- | --- | --- | --- | --- | --- |
| CCn1c(C(=O)N(C2CC2)C2CC2)cc2c3c(ncn3C)c(Nc3cc(C)n(C)n3)nc21 (max concentration tested 10000 nM) | 0 | 0.17 | 0 | 0 | 0.094 ± 0.13 | 0 | 0 | 0 | 2.34 | 0 | 0 | 0 | 0 | 0 | 0 | 8.84% | 16% | 9.48% | -0.298% | 3.94 ± 19% | 0.708 ± 7.6% | 7.29% | 2.67% | 29.6% |
| CN1CC[C@H](c2c(O)cc(O)c3c(=O)cc(-c4ccccc4Cl)oc23)[C@H](O)C1 [Alvocidib] (max concentration tested 10000 nM) | 20.4 | 20.6 | 18 | 17.9 | 15.5 ± 0.93 | 21.1 ± 0.91 | 17.8 | 20.1 | 20.5 | 4.23 | 8.24 | 11.7 | 2.61 ± 3.7 | 4.45 | 10.1 | 83.7% | 101% | 85.4% | 89.1% | 81.118 ± 0.0062% | 99.41 ± 0.97% | 79.8% | 95.8% | 97.8% |
| C[C@]12CC[C@H](O)CC1=CC[C@@H]1[C@@H]2CC[C@]2(C)C(c3cccnc3)=CC[C@@H]12 [Abiraterone] (max concentration tested 5000 nM) | 0 | 0 | 0.394 | 1.01 | 1.83 ± 2 | 0.775 ± 0.16 | 0 | 0 | 0 | 0 | 0 | 0 | 0.133 ± 0.19 | 0 | 0 | -3.84% | 3.26% | 12.6% | 18.7% | 17.1 ± 2.1% | 7.79 ± 0.37% | 4.42% | 3.38% | 5.69% |
| CN(C)C[C@@H]1CCn2cc(c3ccccc32)C2=C(C(=O)NC2=O)c2cn(c3ccccc23)CCO1 [Ruboxistaurin] (max concentration tested 10000 nM) | 5.24 | 5.19 | 5.06 | 7.78 | 7.37 ± 0.77 | 6.12 ± 0.41 | 3.54 | 5.76 | 10 | 1.36 | 7.83 | 8.33 | 6.69 ± 0.61 | 0.807 | 6.98 | 86.7% | 100% | 93.9% | 96.3% | 98.5 ± 4.9% | 78.9 ± 11% | 39.6% | 97.6% | 99.7% |
| COc1cc([C@@H]2c3cc4c(cc3[C@@H](O[C@@H]3O[C@@H]5CO[C@@H](c6cccs6)O[C@H]5[C@H](O)[C@H]3O)[C@H]3COC(=O)[C@H]23)OCO4)cc(OC)c1O [Teniposide] (max concentration tested 10000 nM) | 6.82 | 14 | 22.2 | 22.8 | 15.6 ± 3.6 | 23.7 ± 0.38 | 17.7 | 17.5 | 22.9 | 1.46 | 11 | 9.8 | 8.49 ± 4.7 | 14.7 | 11 | 68.2% | 94.8% | 92.8% | 100% | 92.44 ± 0.6% | 107.1 ± 0.24% | 87.2% | 93.7% | 88.2% |
| CC(C)(C)c1nc(-c2cccc(NS(=O)(=O)c3c(F)cccc3F)c2F)c(-c2ccnc(N)n2)s1 [Dabrafenib] (max concentration tested 2500 nM) | 0.78 | 0.66 | 4.42 | 5.89 | 0.291 ± 0.41 | 1.99 ± 0.58 | 1.19 | 3.99 | 0.2 | 0.89 | 0.888 | 0.888 | 0 | 0 | 0 | 26.6% | 24.5% | 39.9% | 31.7% | 17.6 ± 9.1% | 35.5 ± 1.5% | 33% | 31.1% | 17.6% |
| S=P(N1CC1)(N1CC1)N1CC1 [Thio-TEPA] (max concentration tested 50000 nM) | 0 | 0.99 | 0 | 0 | 0 | 0 | 0.888 | 0.888 | 0 | 0 | 0.888 | 0 | 0.0053 ± 0.0075 | 0 | 0 | 3.83% | 9.72% | 2.2% | 1.51% | -14.5 ± 2.9% | -14.47 ± 0.14% | -6.39% | -2.04% | 9.03% |
| O=C(Cc1ccc(-c2ccc(OCCN3CCOCC3)cc2)cn1)NCc1ccccc1 [KX2-391] (max concentration tested 10000 nM) | 15.7 | 28.3 | 21.4 | 22.7 | 22.6 ± 0.24 | 28.72 ± 0.17 | 25.2 | 29.4 | 24 | 0 | 11.4 | 13.8 | 18.5 ± 2.1 | 30.1 | 32.1 | 76.6% | 93.2% | 75.7% | 86.6% | 75.8 ± 1.3% | 94.784 ± 0.091% | 83.5% | 92.4% | 80.7% |
| CO[C@@]12[C@H](COC(N)=O)C3=C(C(=O)C(C)=C(N)C3=O)N1C[C@@H]1N[C@@H]12 [Mitomycin C] (max concentration tested 10000 nM) | 0.31 | 0.9 | 2.63 | 2.34 | 3.18 ± 0.05 | 3.23 ± 0.21 | 3.61 | 2.31 | 4.11 | 0 | 2.29 | 2.91 | 2.38 ± 3 | 5.46 | 1.57 | 16.2% | 28.5% | 52.1% | 51.3% | 69.5 ± 1.9% | 68.5 ± 1.9% | 77.4% | 50.2% | 55.7% |
| Cc1[nH]c2ccccc2c1CCNCc1ccc(/C=C/C(=O)NO)cc1 [Panobinostat] (max concentration tested 1000 nM) | 14.1 | 19.1 | 19.5 | 16.7 | 24.1 ± 0.61 | 22.7 ± 0.67 | 22 | 16.8 | 23.7 | 9.17 | 10.5 | 10.7 | 20.6 ± 0.84 | 16.1 | 11.1 | 93.9% | 101% | 101% | 101% | 104.5 ± 0.79% | 103.7 ± 0.37% | 101% | 98% | 99.9% |
| COc1cc2/c(=N/c3ccc(Br)cc3F)nc[nH]c2cc1OCC1CCN(C)CC1 [Vandetanib] (max concentration tested 1000 nM) | 4.01 | 0 | 0 | 0 | 1.44 ± 2 | 0 | 0 | 0.185 | 0 | 0.53 | 0 | 0 | 0.78 ± 1.1 | 0 | 0 | 34.2% | 8.38% | -0.207% | -4.21% | 28 ± 9.4% | 11.2 ± 6.6% | 1.05% | 14.5% | 2.38% |
| COc1cc2c(Oc3ccc4[nH]c(C)cc4c3F)ncnc2cc1OCCCN1CCCC1 [Cediranib] (max concentration tested 1000 nM) | 1.71 | 0 | 0.0876 | 0 | 0.908 ± 0.43 | 0 | 0 | 0 | 0 | 0 | 0 | 0.638 | 0.112 ± 0.16 | 0.0254 | 0 | 20.1% | 1.32% | 12.1% | -10.7% | 19.9 ± 0.91% | -3.01 ± 12% | 8.47% | 4.34% | -10.3% |
| N#Cc1ccc(C(c2ccc(C#N)cc2)n2cncn2)cc1 [Letrozole] (max concentration tested 10000 nM) | 0 | 0.34 | 0 | 0 | 0 | 0 | 0 | 0 | 0 | 0 | 0 | 0 | 0 | 0 | 0 | 10.6% | 14.7% | 1.16% | 3.35% | -4.25 ± 4.2% | -4.84 ± 2.2% | -5.31% | 3.15% | 7.25% |
